Experimental data published in patent US8981047B2 (Indiana University Research and Technology Corporation, priority 2007, dated 2015).
Square brackets hold non-standard residues; d marks the D form. Peptide text beside a SMILES is read from it. Abu(4-SO3H) = N[C@@H](CCS(=O)(=O)O)C(=O)O; PhLac = O=C(O)[C@@H](O)Cc1ccccc1

Tests used:
glucagon receptor [1] = target: T1, glucagon receptor (Homo sapiens, UniProt P47871); assay: cAMP inhibition (antagonism of glucagon-induced cAMP production); format: cell-based; design: expressed in transfected cells; host or cells: HEK293; conditions: Tables 5-12 and FIGS. 4, 5, 7, 8
glucagon receptor [2] = target: T1, glucagon receptor; assay: cAMP induction, firefly luciferase reporter assay in HEK293 cells; format: cell-based; design: expressed in transfected cells; host or cells: HEK293; conditions: read-out: cAMP Induction Glucagon Receptor EC50; Table 2
glucagon receptor [3] = target: T1, glucagon receptor; assay: Glucagon receptor binding assay (scintillation proximity competition with 125I-glucagon); conditions: 6-29 shortened glucagon amide backbone
GLP-1 receptor = GLP-1 receptor (Homo sapiens, UniProt P43220); assay: cAMP induction, firefly luciferase reporter assay in HEK293 cells; format: cell-based; conditions: Table 13; cells expressing the human GLP-1 receptor
Chain of GLP-1 receptor (P43220 24-463): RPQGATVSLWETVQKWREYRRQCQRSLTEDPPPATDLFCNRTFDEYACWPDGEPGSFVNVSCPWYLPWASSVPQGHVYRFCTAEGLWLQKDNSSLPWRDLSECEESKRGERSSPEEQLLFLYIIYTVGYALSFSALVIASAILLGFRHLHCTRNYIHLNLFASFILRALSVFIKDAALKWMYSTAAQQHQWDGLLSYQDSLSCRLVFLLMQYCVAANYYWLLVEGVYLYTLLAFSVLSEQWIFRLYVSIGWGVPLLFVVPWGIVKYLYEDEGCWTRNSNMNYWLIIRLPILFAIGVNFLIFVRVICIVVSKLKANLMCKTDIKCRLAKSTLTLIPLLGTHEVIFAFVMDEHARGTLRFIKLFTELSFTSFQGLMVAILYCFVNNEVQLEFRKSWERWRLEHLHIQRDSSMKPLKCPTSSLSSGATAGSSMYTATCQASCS

T1 sequence (P47871 26-477): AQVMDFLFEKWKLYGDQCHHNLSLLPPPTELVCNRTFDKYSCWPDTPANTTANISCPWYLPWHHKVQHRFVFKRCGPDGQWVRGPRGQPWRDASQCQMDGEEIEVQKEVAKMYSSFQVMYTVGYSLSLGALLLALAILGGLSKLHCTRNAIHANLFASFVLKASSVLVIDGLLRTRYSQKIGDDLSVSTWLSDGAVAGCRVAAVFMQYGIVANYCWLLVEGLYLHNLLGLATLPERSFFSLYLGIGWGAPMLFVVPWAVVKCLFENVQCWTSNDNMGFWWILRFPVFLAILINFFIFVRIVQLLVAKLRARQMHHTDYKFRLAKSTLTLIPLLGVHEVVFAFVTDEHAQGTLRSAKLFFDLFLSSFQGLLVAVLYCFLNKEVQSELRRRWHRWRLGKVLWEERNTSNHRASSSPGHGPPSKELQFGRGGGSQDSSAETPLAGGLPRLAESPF

CC(C)C[C@H](NC(=O)[C@H](Cc1ccc(O)cc1)NC(=O)[C@H](CCCCN)NC(=O)[C@H](CO)NC(=O)[C@H](Cc1ccc(O)cc1)NC(=O)[C@H](CCS(=O)(=O)O)NC(=O)[C@H](CO)NC(=O)[C@@H](NC(=O)[C@@H](NC(=O)CNC(=O)[C@H](CCC(N)=O)NC(=O)[C@@H](N)CO)[C@@H](C)O)[C@@H](C)O)C(=O)N[C@@H](CC(=O)O)C(=O)N[C@@H](CO)C(=O)N[C@@H](CCCNC(=N)N)C(=O)N[C@@H](CCCNC(=N)N)C(=O)N[C@@H](C)C(=O)N[C@@H](CCC(N)=O)C(=O)N[C@@H](CC(=O)O)C(=O)N[C@@H](Cc1ccccc1)C(=O)N[C@H](C(=O)N[C@@H](CCC(N)=O)C(=O)N[C@@H](Cc1ccccc1)C(=O)N[C@@H](CC(C)C)C(=O)N[C@@H](CC(C)C)C(=O)N[C@@H](CC(N)=O)C(=O)N[C@H](C(N)=O)[C@@H](C)O)C(C)C [[desHis^1, desPhe^6, hCys^9(SO3-), Phe^25, Leu^27] Glucagon-NH2] (H-SQGTTS[Abu(4-SO3H)]YSKYLDSRRAQDFVQFLLNT-NH2; N-terminus assumed)
glucagon antagonism in the cAMP bioassay, result in words (glucagon receptor [1]): some level of antagonism

CSCC[C@H](NC(=O)[C@H](CC(C)C)NC(=O)[C@H](Cc1c[nH]c2ccccc12)NC(=O)[C@H](CCC(N)=O)NC(=O)[C@@H](NC(=O)[C@H](Cc1ccccc1)NC(=O)[C@H](CC(=O)O)NC(=O)[C@H](CCC(N)=O)NC(=O)[C@H](C)NC(=O)[C@H](CCCNC(=N)N)NC(=O)[C@H](CCCNC(=N)N)NC(=O)[C@H](CO)NC(=O)[C@H](CC(=O)O)NC(=O)[C@H](CC(C)C)NC(=O)[C@H](Cc1ccc(O)cc1)NC(=O)[C@H](CCCCN)NC(=O)[C@H](CO)NC(=O)[C@H](Cc1ccc(O)cc1)NC(=O)[C@H](CCS(=O)(=O)O)NC(=O)[C@H](CO)NC(=O)[C@@H](NC(=O)[C@@H](N)Cc1ccccc1)[C@@H](C)O)C(C)C)C(=O)N[C@@H](CC(N)=O)C(=O)N[C@H](C(N)=O)[C@@H](C)O [[hCys^9(SO3H)]Glucagon(aa6-29)-NH2] (H-FTS[Abu(4-SO3H)]YSKYLDSRRAQDFVQWLMNT-NH2)
glucagon antagonism in the cAMP bioassay, result in words (glucagon receptor [1]; listed as 6-29 hCys9): pure potent antagonism, without any measurable agonist activity | glucagon antagonism in the cAMP bioassay, result in words (glucagon receptor [1]; listed as 6-29 hCys(SO3H)^9): full antagonists

CSCC[C@H](NC(=O)[C@H](CC(C)C)NC(=O)[C@H](Cc1c[nH]c2ccccc12)NC(=O)[C@H](CCC(N)=O)NC(=O)[C@@H](NC(=O)[C@H](Cc1ccccc1)NC(=O)[C@H](CC(=O)O)NC(=O)[C@H](CCC(N)=O)NC(=O)[C@H](C)NC(=O)[C@H](CCCNC(=N)N)NC(=O)[C@H](CCCNC(=N)N)NC(=O)[C@H](CO)NC(=O)[C@H](CC(=O)O)NC(=O)[C@H](CC(C)C)NC(=O)[C@H](Cc1ccc(O)cc1)NC(=O)[C@H](CCCCN)NC(=O)[C@H](CO)NC(=O)[C@H](Cc1ccc(O)cc1)NC(=O)[C@H](CCS(=O)(=O)O)NC(=O)[C@H](CO)NC(=O)[C@@H](NC(=O)[C@H](Cc1ccccc1)NC(=O)[C@@H](NC(=O)CN)[C@@H](C)O)[C@@H](C)O)C(C)C)C(=O)N[C@@H](CC(N)=O)C(=O)N[C@H](C(N)=O)[C@@H](C)O [[hCys^9(SO3H)]Glucagon(aa4-29)-NH2, [hCys(SO3H)9]glucagon (4-29) amide] (H-GTFTS[Abu(4-SO3H)]YSKYLDSRRAQDFVQWLMNT-NH2; N-terminus assumed)
glucagon antagonism in the cAMP bioassay, result in words (glucagon receptor [1]): full antagonists

Oxyntomodulin C24 PEG 20 K
EC50 (glucagon receptor [2]): 0.97 ± 0.04 nM

CC(C)C[C@H](NC(=O)[C@H](Cc1ccc(O)cc1)NC(=O)[C@H](CCCCN)NC(=O)[C@H](CO)NC(=O)[C@H](Cc1ccc(O)cc1)NC(=O)[C@H](CCS(=O)(=O)O)NC(=O)[C@H](CO)NC(=O)[C@@H](NC(=O)[C@H](Cc1ccccc1)NC(=O)[C@@H](NC(=O)[C@H](CC(C)C)NC(=O)[C@H](CCC(N)=O)NC(=O)[C@@H](N)CO)[C@@H](C)O)[C@@H](C)O)C(=O)N[C@@H](CC(=O)O)C(=O)N[C@@H](CO)C(=O)N[C@@H](CCCNC(=N)N)C(=O)N[C@@H](CCCNC(=N)N)C(=O)N[C@@H](C)C(=O)N[C@@H](CCC(N)=O)C(=O)N[C@@H](CC(=O)O)C(=O)N[C@@H](Cc1ccccc1)C(=O)N[C@H](C(=O)N[C@@H](CCC(N)=O)C(=O)N[C@@H](Cc1ccccc1)C(=O)N[C@@H](CC(C)C)C(=O)N[C@@H](CC(C)C)C(=O)N[C@@H](CC(N)=O)C(=O)N[C@H](C(N)=O)[C@@H](C)O)C(C)C [[desHis^1, Leu^4, hCys^9(SO3-), Phe^25, Leu^27] Glucagon-NH2] (H-SQLTFTS[Abu(4-SO3H)]YSKYLDSRRAQDFVQFLLNT-NH2; N-terminus assumed)
glucagon antagonism in the cAMP bioassay, result in words (glucagon receptor [1]): some level of antagonism

PLA6 analog: native glucagon with first 5 residues deleted and N-terminal amino group of Phe replaced with hydroxyl (phenyl-lactic acid); SEQ ID NO: 39
increase of affinity for the glucagon receptor relative to the native Phe6 analog (glucagon receptor [3]): threefold

CSCC[C@H](NC(=O)[C@H](CC(C)C)NC(=O)[C@H](Cc1c[nH]c2ccccc12)NC(=O)[C@H](CCC(N)=O)NC(=O)[C@@H](NC(=O)[C@H](Cc1ccccc1)NC(=O)[C@H](CC(=O)O)NC(=O)[C@H](CCC(N)=O)NC(=O)[C@H](C)NC(=O)[C@H](CCCNC(=N)N)NC(=O)[C@H](CCCNC(=N)N)NC(=O)[C@H](CO)NC(=O)[C@H](CC(=O)O)NC(=O)[C@H](CC(C)C)NC(=O)[C@H](Cc1ccc(O)cc1)NC(=O)[C@H](CCCCN)NC(=O)[C@H](CO)NC(=O)[C@H](Cc1ccc(O)cc1)NC(=O)[C@H](CCC(=O)O)NC(=O)[C@H](CO)NC(=O)[C@@H](NC(=O)[C@@H](O)Cc1ccccc1)[C@@H](C)O)C(C)C)C(=O)N[C@@H](CC(N)=O)C(=O)N[C@H](C(N)=O)[C@@H](C)O [[PLA6, E9]Glucagon(aa6-29)-NH2] (H-[PhLac]TSEYSKYLDSRRAQDFVQWLMNT-NH2)
GLP-1 agonism EC50 (GLP-1 receptor): No agonism

CSCC[C@H](NC(=O)[C@H](CC(C)C)NC(=O)[C@H](Cc1c[nH]c2ccccc12)NC(=O)[C@H](CCC(N)=O)NC(=O)[C@@H](NC(=O)[C@H](Cc1ccccc1)NC(=O)[C@H](CC(=O)O)NC(=O)[C@H](CCC(N)=O)NC(=O)[C@H](C)NC(=O)[C@H](CCCNC(=N)N)NC(=O)[C@H](CCCNC(=N)N)NC(=O)[C@H](CO)NC(=O)[C@H](CC(=O)O)NC(=O)[C@H](CC(C)C)NC(=O)[C@H](Cc1ccc(O)cc1)NC(=O)[C@H](CCCCN)NC(=O)[C@H](CO)NC(=O)[C@H](Cc1ccc(O)cc1)NC(=O)[C@H](CCS(=O)(=O)O)NC(=O)[C@H](CO)NC(=O)[C@@H](NC(=O)[C@H](Cc1ccccc1)NC(=O)[C@@H](N)[C@@H](C)O)[C@@H](C)O)C(C)C)C(=O)N[C@@H](CC(N)=O)C(=O)N[C@H](C(N)=O)[C@@H](C)O [[hCys^9(SO3H)]Glucagon(aa5-29)-NH2, [hCys(SO3H)9]glucagon (5-29) amide] (H-TFTS[Abu(4-SO3H)]YSKYLDSRRAQDFVQWLMNT-NH2; N-terminus assumed)
glucagon antagonism in the cAMP bioassay, result in words (glucagon receptor [1]; listed as 5-29 hCys9): pure potent antagonism, without any measurable agonist activity | glucagon antagonism in the cAMP bioassay, result in words (glucagon receptor [1]; listed as 5-29 hCys9-based glucagon antagonist): more potent and effective than the literature standards | glucagon antagonism in the cAMP bioassay, result in words (glucagon receptor [1]; listed as 5-29 hCys(SO3H)^9): full antagonists
